From patent publication US20230025932A1, “NOVEL FUNCTIONALIZED LACTONES AS MODULATORS OF THE 5-HYDROXYTRYPTAMINE RECEPTOR 7 AND THEIR METHOD OF USE” (Temple University-Of The Commonwealth System of Higher …, priority 2019, published 2023)
pKi: −log10 of the molar value.

What was measured:
5-HT7 receptors [1] = target: T1, 5-HT7 receptors (Homo sapiens, UniProt P34969); experiment: Functional cAMP enzyme fragment complementation assay (HitHunter cAMP), antagonist Kb; format: cell-based; design: expressed in transfected cells; conditions: cells expressing human 5HT7, antagonist mode with EC70 5-HT
Procedure: Functional efficacy of the compounds of the disclosure on 5-HT7 serotonin receptors are measured in a cell based cAMP enzyme fragment complementation assay using the HitHunter cAMP assay (DiscoveRx). Cells stably expressing human 5HT7 receptors are plated in 96-well plates at 4000 cells/well, 16-20 hours prior to assay in growth media (Ultraculture medium, 2 mM GlutaMax and G418 1 mg/mL. Serial dilutions of the agonist, 5-hydroxytryptamine (5-HT), are prepared in a final concentration range of 10 μM to 10 nM. Compounds of the disclosure are prepared in 3-fold serial dilutions to obtain a final concentration range of 10 μM to 0.1 nM. Compounds of the disclosure are tested for agonist activity in the absence of 5-HT and antagonist activity in the presence of 5-HT. For the cAMP assay, the protocol is followed according to the instructions provided by the supplier. Briefly, cells are incubated with a compound of the disclosure for 30 minutes at 37° C. prior to addition of EC70 concentration of 5-HT. After an additional 30 minutes, cAMP antibody/cell lysis solution is added (20 μL/well) and incubated for 60 minutes at room temperature. cAMP XS+EA reagent is added (20 μL/well) and incubated for 2 hours at room temperature. Luminescence is read on the Envision Multilabel plate reader.

5-HT7 receptors [2] = target: T1, 5-HT7 receptors; experiment: Radiolabeled binding ([3H]LSD competition, membrane fractions)

T1 sequence (P34969 whole entry, the tested form may be a part): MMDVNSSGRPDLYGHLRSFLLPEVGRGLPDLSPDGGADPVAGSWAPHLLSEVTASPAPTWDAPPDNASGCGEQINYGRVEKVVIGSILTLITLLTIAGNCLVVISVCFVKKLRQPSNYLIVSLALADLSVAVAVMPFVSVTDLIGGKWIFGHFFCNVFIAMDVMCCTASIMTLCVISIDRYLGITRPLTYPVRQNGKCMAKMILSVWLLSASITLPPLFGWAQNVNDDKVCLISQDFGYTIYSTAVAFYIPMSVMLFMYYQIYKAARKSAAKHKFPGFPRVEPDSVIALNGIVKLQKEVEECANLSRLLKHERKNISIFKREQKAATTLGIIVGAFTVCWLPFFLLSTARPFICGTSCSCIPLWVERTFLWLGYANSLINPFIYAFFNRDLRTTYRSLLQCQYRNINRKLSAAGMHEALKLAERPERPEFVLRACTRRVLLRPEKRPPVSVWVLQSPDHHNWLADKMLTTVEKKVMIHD

Structure (SMILES) | Kb (5-HT7 receptors [1]) [nM] | pKi (5-HT7 receptors [2])
CC(=O)NCC(=O)N1CCC2(CC1)C[C@H](CCN1CCN(c3ccc(F)cc3)CC1)OC2=O [Compound 6] | 10 to 100 | –
CS(=O)(=O)NCC(=O)N1CCC2(CC1)C[C@H](CCN1CCN(c3cccc(Cl)c3)CC1)OC2=O [Compound 9] | 10 to 100 | 6.70 to 7.30
